Measured values reported in patent US20180036314A1, “METHODS AND COMPOSITIONS FOR TREATING PERIPHERAL VASCULAR DISEASE” (Exodos Life Sciences Limited Partnership, priority 2009, published 2018).

Tests used:
[1] = test system: patients with Raynaud's phenomenon; conditions: cited from earlier work
[2] = test system: hands of normal human volunteers; assay: Skin temperature recovery of the hand after cold water immersion (infrared camera); type: in vivo; conditions: topical, acclimation at 25° C.
Experimental: The effects of L-arginine and sidelnafil citrate in the regulation of human blood flow was determined by measuring the rate of skin temperature recovery in the hands of normal human volunteers following a period of cold water immersion. The measurements were performed at room temperature 25° C., for a period of 30 minutes after acclimatization. L-arginine monohydrate and sildenafile citrate were prepared in commercially available Veecogel Cream base formulation containing Krisgel 100™, Coconut oil, Capryloic Acid, Triglicerides, Squalane, Boric Acid, Polysorbate 80, Sorbitan Monooleate 80, Simethicone, Butylated hydroxytoluene. Sildenafil citrate 1% was dissolved in propylene glycol 2% and combine with base with constant mixing. L-arginine monohydrate 10% and 1% were dissolve in 2% propylene glycol and combine with the Veecogel described above.
Skin temperature was measured with an infrared camera FLIR T300 (FLIR Systems, Inc., Boston, Mass., USA). Changes in skin temperature were determined after cooling of hand for 2 minutes in ice water by analyzing individual thermal images with FLIR Quick Report software. The effects of test drugs were determined following application of substance to the cooled hand. Thermal images of a patient receiving the control treatment and of a patient receiving the combination treatment were taken at 0, 5, and 15 minutes after treatment, and are shown in FIGS. 1A and 1B, respectively.

pig skin = assay: Local cutaneous blood flow in pigs after topical application (laser Doppler); type: in vivo; conditions: for Local cutaneous blood flow, FLOW (MV), 10 min. after treatment / Local cutaneous blood flow, FLOW (MV), 20 min. after treatment / Local cutaneous blood flow, FLOW (MV), 30 min. after treatment / Local cutaneous blood flow, FLOW (MV), 60 min. after treatment / Local cutaneous blood flow, FLOW (MV), 120 min after treatment / Local cutaneous blood flow, FLOW (MV), 180 min. after treatment: topical
Experimental: A stable depth of sedation was maintained with continuous intravenous methohexital, titrated to a minimal lid reflex and a regular respiratory rate. Throughout the experiment, the animals spontaneously breathed through a “snout-cone” connected to a standard anesthesia machine delivering 100% oxygen. The dorsal surface of the animal was cleaned with tepid water. Ten sites (2×2 cm each) were defined on the dorsal surface of the animal with permanent marker. […] MAP was recorded at the start and end of each Doppler scan. A dose volume of 0.1 mL of vehicle, control, or test article was applied to each site. L-arginine monohydrate and sildenafil citrate were prepared in commercially available Veecogel Cream base formulation (available from PCCA, 9901 South […], Houston, Tex., USA) containing […], Coconut oil, Capryloic Acid, […], Squalane, Boric Acid, Polysorbate 80, Sorbitan Monooleate 80, Simethicone, Butylated hydroxytoluene. Sildenafil citrate 1% was dissolved in propylene glycol 2% and combine with base with constant mixing. L-arginine monohydrate 10% and 1% were dissolved in 2% propylene glycol and combined with the Veecogel described above. No two adjacent sites were administered the same concentration of any control or test article and administration was temporally spaced to allow at least 2 minutes between dosing each site. […] Applications were made in the same order and over the same time span as the baseline blood flow measurements. […] Blood flow at the untreated, control site was measured immediately prior to and immediately after the measurements at the treated sites. These two measurements were averaged to obtain the control blood flow for each interval. Serum levels of local drugs were not measured. Regional differences in blood flow were accounted for by normalizing the measurements of flow made after injection of a test solution to the baseline flow at the site prior to application. Changes in blood flow are expressed as a percent change from control blood flow. Variations in skin blood flow over the course of the experiment were accounted for by normalizing the changes in blood flow at a given site to the changes in blood flow at a control site. Thus, the change in cutaneous blood flow at a treatment site can be determined by the formula: [formula] where Sx is the blood flow at an injected site X min after application, So is the baseline flow at that site prior to application, Cx is the flow at the control site X min after the application, and Co is the blood flow at the control site at the same time that the baseline flow measurements were made.

[3] = test system: patient suffering from Raynaud's phenomenon secondary to chemotherapy; conditions: single patient; equipotent doses; cited from earlier work
[4] = test system: vasospastic attacks and peripheral blood flow; conditions: oral 20 mg 2 or 3 times per week during 4 weeks; compared to pentoxifylline 600 mg b.i.d.; cited from earlier work
[5] = test system: patients with scleroderma and lupus; conditions: in vivo; cited from earlier work
[6] = test system: patients with Raynaud's phenomenon secondary to scleroderma; conditions: in vivo; cited from earlier work
[7] = test system: primary Raynaud's symptoms; conditions: in vivo; cited from earlier work
[8] = test system: patients with secondary Raynaud's phenomenon; conditions: oral 50 mg twice daily for 4 weeks, cited from earlier work
[9] = in vivo; cited from earlier work

SMILES: Cc1c(C)c2c(c(C)c1O)CC[C@@](C)(CCC[C@H](C)CCC[C@H](C)CCCC(C)C)O2 [α-tocopherol]
- Effects on blood flow parameters ([1]; comparator arm): no effects on blood flow parameters

SMILES: N=C(N)NCCC[C@H](N)C(=O)O [Arginine, L-arginine]
- Change in skin temperature from baseline, 1 min. ([2]; dose 10% W/v): 2.5 °C
- Change in skin temperature from baseline, 2 min. ([2]; dose 10% W/v): 4 °C
- Change in skin temperature from baseline, 5 min. ([2]; dose 10% W/v): 5 °C
- Change in skin temperature from baseline, 10 min. ([2]; dose 10% W/v): 9.5 °C
- Change in skin temperature from baseline, 15 min. ([2]; dose 10% W/v): 11.5 °C
- Effect on dermal blood flow (pig skin; topical application): increased dermal blood flow in a dose and time dependent manner
- Local cutaneous blood flow, FLOW (MV), 10 min. after treatment (pig skin; dose 1%): 0.41 MV
- Local cutaneous blood flow, FLOW (MV), 20 min. after treatment (pig skin; dose 1%): 12.47 MV
- Local cutaneous blood flow, FLOW (MV), 30 min. after treatment (pig skin; dose 1%): 5.55 MV
- Local cutaneous blood flow, FLOW (MV), 60 min. after treatment (pig skin; dose 1%): 2.71 MV
- Local cutaneous blood flow, FLOW (MV), 120 min after treatment (pig skin; dose 1%): 7.91 MV
- Local cutaneous blood flow, FLOW (MV), 180 min. after treatment (pig skin; dose 1%): 10.26 MV
- Local cutaneous blood flow, FLOW (MV), 10 min. after treatment (pig skin; dose 10%): 19.82 MV
- Local cutaneous blood flow, FLOW (MV), 20 min. after treatment (pig skin; dose 10%): 21.88 MV
- Local cutaneous blood flow, FLOW (MV), 30 min. after treatment (pig skin; dose 10%): 22.07 MV
- Local cutaneous blood flow, FLOW (MV), 60 min. after treatment (pig skin; dose 10%): 38.45 MV
- Local cutaneous blood flow, FLOW (MV), 120 min after treatment (pig skin; dose 10%): 40.21 MV
- Local cutaneous blood flow, FLOW (MV), 180 min. after treatment (pig skin; dose 10%): 38.72 MV

SMILES: CN1CC(=O)N2[C@H](c3ccc4c(c3)OCO4)c3[nH]c4ccccc4c3C[C@@H]2C1=O [tadalafil, (6R,12aR)-2,3,6,7,12,12a-hexahydro-2-methyl-6-(3,4-methylenedioxyphenyl)-pyrazino[2′,1′:6,1]pyrido[3,4-b]indole-1,4-dione]
- Response of Raynaud's symptoms and capillary blood flow [3]: improved Raynaud's symptoms and increased capillary blood flow
- Peripheral blood flow at the end of the treatment period [4]: increased peripheral blood flow
- Vasospastic attack frequency and duration [4]: significant reduction in vasospastic attack frequency and duration
- Raynaud's symptoms [5]: reduced Raynaud's symptoms

SMILES: CCCc1nn(C)c2c(=O)[nH]c(-c3cc(S(=O)(=O)N4CCN(C)CC4)ccc3OCC)nc12 [Sildenafil, 5-[2-ethoxy-5-(4-methyl-1-piperazinylsulphonyl)phenyl]-1-methyl-3-n-propyl-1,6-dihydro-7H-pyrazolo[4,3-d]pyrimidin-7-one]
- Response of Raynaud's symptoms and capillary blood flow [3]: did not respond
- Change in skin temperature from baseline, 1 min. ([2]; dose 1% W/v): 1 °C
- Change in skin temperature from baseline, 2 min. ([2]; dose 1% W/v): 4 °C
- Change in skin temperature from baseline, 5 min. ([2]; dose 1% W/v): 6.5 °C
- Change in skin temperature from baseline, 10 min. ([2]; dose 1% W/v): 8.5 °C
- Change in skin temperature from baseline, 15 min. ([2]; dose 1% W/v): 12.5 °C
- Patients with a reduction in pain and frequency of Raynaud's phenomenon attacks [6]: 80%
- Patients with digital ulcer healing (of those with digital ulcers at baseline) [6]: 75%
- Primary Raynaud's symptoms [7]: failed to improve primary Raynaud's symptoms
- Increase in forearm blood flow ([1]; oral, after treatment): 75%
- Digital ulcers in patients who had digital ulcers at baseline [8]: ulcer healing was observed
- Increase in mean capillary flow velocity [8]: more than 4 fold
- Frequency and duration of Raynaud's attacks ([8]; compared to placebo): reduction in the frequency and duration of Raynaud's attacks compared to placebo
- Half-life [9]: 3.8 h
- Effect on blood flow (pig skin; topical concentration of 1% in Veecogel cream base): increased blood flow in the areas of application
- Local cutaneous blood flow, FLOW (MV), 10 min. after treatment (pig skin; dose 1%): −10.31 MV
- Local cutaneous blood flow, FLOW (MV), 20 min. after treatment (pig skin; dose 1%): −3.51 MV
- Local cutaneous blood flow, FLOW (MV), 30 min. after treatment (pig skin; dose 1%): −1.57 MV
- Local cutaneous blood flow, FLOW (MV), 60 min. after treatment (pig skin; dose 1%): 1.58 MV
- Local cutaneous blood flow, FLOW (MV), 120 min after treatment (pig skin; dose 1%): 3.15 MV
- Local cutaneous blood flow, FLOW (MV), 180 min. after treatment (pig skin; dose 1%): 15.73 MV
